Measured values from patent US20260257987A1, “COMPOUNDS AND METHOD FOR UPREGULATION OF P53 THROUGH INDUCTION OF MDM2 DEGRADATION” (Georgia State University Research Foundation, Inc., priority 2022, published 2026).
“Also recorded” adds a separate entry of the source. Like-named read-outs stand apart in the source and are kept apart here.

Legend:
H9c2 cells = assay: Cytotoxicity test (CCK-8) in H9c2 cells; assay type: cell-based; conditions: Rattus norvegicus
Method: (§1) Cell viability was assessed by using Cell Counting Kit-8 (CCK-8, Dojindo, Japan). EU-1 and RS4;11 cells were cultured in RPMI-1640 medium (Corning, USA); MCF7 and HEK-293 cells were cultured in MEM (Corning, USA); and HeLa and H9c2 cells were cultured in high glucose DMEM (Corning, USA). All the culture mediums were supplemented with 10% fetal bovine serum (Corning, USA) and 100 unit/ml penicillin, and […] streptomycin. For cytotoxicity assays, cells were seeded into 96-well plates at a density of 3× 10^5 cells per well (50 μL). Compounds were dissolved in DMSO (molecular biology grade, Sigma-Aldrich, USA) to make 10 mM stock solutions, which were serially diluted with the culture medium to various concentrations (final DMSO concentration=0.5%). […] After incubation for 24 h at 37° C. in a humidified atmosphere with 5% CO2, 10 μL of CCK-8 solution was added to each well, and the plate was incubated for an additional 2-4 h at 37° C. before measuring the optical density at 450 nm with a microplate reader (PerkinElmer Victor 2, USA). The cell viability of each well was calculated as the percentage of the untreated control according to the manufacturer's manual. All tests were performed in triplicates, and IC50 values were determined with six concentrations by non-linear regression using GraphPad Prism 9.

[1] = tested on: MDM2 and p53 in EU-1 leukemia cells; assay: Western blot of MDM2 and p53 in EU-1 leukemia cells; assay type: cell-based; conditions: EU-1 cells; for MDM2 and p53 level by Western blot, dose and time dependence: GAPDH loading control
Method: Western Blot 5×10^6 cells were seeded in a 6-well plate and incubated for 12 h before the drug-loaded medium was added. The cells were harvested at designated time points, washed with cold PBS, and centrifuged at 1500 rpm×3 min. Then the cells were lysed by adding 100 μL of cold NP-40 buffer (supplied with complete™ protease Inhibitor tablet (Roche, USA)) and 1 mM PMSF (Thermo-Fisher, USA) on ice for 30 min. The cell lysates were centrifuged at 12500×g at 4° C. for 10 min, and the total protein concentration in the supernatant was measured with the BCA assay (Thermo-Fisher, USA). 30 μL of the cell lysate was mixed with 10 μL 4×Laemmli sample buffer and denatured at 95° C. for 5 min. The total protein concentration was adjusted with 1×Laemmli sample buffer. Equal amounts of protein sample were loaded onto a 4-15% gradient SDS-PAGE gel (Bio-rad, USA). After electrophoresis, the protein was transferred to the […] membrane (Bio-rad, USA) with the Trans-Blot Turbo system (Bio-rad, USA). The target protein was probed with the corresponding antibody using iBind Western Systems (Thermo-Fisher, USA), according to the manufacturer's manual. Antibody and dilution profile: MDM2 ((SMP14), 1:500 Santa Cruz, USA); p53 ((DO-1), 1:800, Santa Cruz, USA); GAPDH ((0411), 1:2000, Santa Cruz, USA) and HRP conjugated goat anti-mouse secondary antibody (1:2000, Bio-rad, USA). After incubation with Pierce ECL Plus Substrate (Thermo Scientific), chemiluminescent was detected and imaged with LSA^4000 (GE Healthcare, Fairfield, USA).

[2] = Thiol (NAC) reactivity study by HPLC; assay type: physicochemical; conditions: for order of reactivity with NAC (pseudo-first-order kinetics): 0.3 mM analog, 1.5 mM NAC
Method: HPLC was performed on Shimadzu LC-20AT HPLC system. Condition: mobile phase A: water with 0.05% TFA; B: acetonitrile with 0.05% TFA; gradient: 5-95% B, 0-10 min; […]; 5% B 12.1-15 min. Column: C18, 3.5 μm, 4.6×150 mm; UV detector monitored at 254 nm. For the thiol reactivity assay, a 0.3 mM solution of AQ-analogs was prepared in 0.5 mL PBS: MeOH (80:20) and warmed at 37° C. Next, 25 μL of NAC (from 30 mM stock solution in PBS) was added to the above solution. The resultant solution had final concentrations of 0.3 mM AQ-analogs and 1.5 mM NAC. 20 μL of the reaction mixture was injected into the HPLC at the designated time intervals. The area percentage values were determined via the integration of the area under the curve (AUC) of the chromatogram.

HeLa cells = assay: Cytotoxicity test (CCK-8) in HeLa cells; assay type: cell-based; conditions: for IC50: Homo sapiens, HeLa cells
Method: (§2) Cell viability was assessed by using Cell Counting Kit-8 (CCK-8, Dojindo, Japan). EU-1 and RS4;11 cells were cultured in RPMI-1640 medium (Corning, USA); MCF7 and HEK-293 cells were cultured in MEM (Corning, USA); and HeLa and H9c2 cells were cultured in high glucose DMEM (Corning, USA). All the culture mediums were supplemented with 10% fetal bovine serum (Corning, USA) and 100 unit/ml penicillin, and […] streptomycin. For cytotoxicity assays, cells were seeded into 96-well plates at a density of 3× 10^5 cells per well (50 μL). Compounds were dissolved in DMSO (molecular biology grade, Sigma-Aldrich, USA) to make 10 mM stock solutions, which were serially diluted with the culture medium to various concentrations (final DMSO concentration=0.5%). A culture medium (50 μL) containing the anthraquinone analog was added directly to the cell suspension in each well immediately after seeding. After incubation for 24 h at 37° C. in a humidified atmosphere with 5% CO2, 10 μL of CCK-8 solution was added to each well, and the plate was incubated for an additional 2-4 h at 37° C. before measuring the optical density at 450 nm with a microplate reader (PerkinElmer Victor 2, USA). The cell viability of each well was calculated as the percentage of the untreated control according to the manufacturer's manual. All tests were performed in triplicates, and IC50 values were determined with six concentrations by non-linear regression using GraphPad Prism 9.

RS4;11 cells = assay: Cytotoxicity test (CCK-8) in RS4;11 cells; assay type: cell-based; conditions: Homo sapiens
Method: as §1

MCF7 cells = assay: Cytotoxicity test (CCK-8) in MCF7 cells; assay type: cell-based; conditions: Homo sapiens
Method: as §1

EU-1 cells = assay: Cytotoxicity test (CCK-8 cell viability) in EU-1 cells; assay type: cell-based; conditions: for IC50: read-out: IC50 (μM) in EU-1 cells; for fold more potent than BW-AQ-238: compared to BW-AQ-238
Method: as §2

HEK-293 cells = assay: Cytotoxicity test (CCK-8) in HEK-293 cells; assay type: cell-based; conditions: Homo sapiens, HEK293
Method: as §1

EU-1 ALL cells = conditions: background; cited from earlier work
[3] = EU-1 cells, 24 h incubation, CCK-8

SMILES	IC50 (H9c2 cells)	MDM2 and p53 level by Western blot, dose and time dependence [1]	reactivity towards thiol, in words [2]	order of reactivity with NAC (pseudo-first-order kinetics) ([2]; 37° C. in PBS, HPLC)	IC50 (HeLa cells)	IC50 (RS4;11 cells)	IC50 (MCF7 cells)	IC50 (EU-1 cells; [3])	IC50 (HEK-293 cells)	fold more potent than BW-AQ-238 (EU-1 cells; EU-1 cells)	further results
C#CC(=O)Nc1cc(OCCCC(C)=O)c2c(c1)C(=O)c1cccc(OCCCC(C)=O)c1C2=O [BW-AQ-350, N-(9,10-dioxo-4,5-bis ((4-oxopentyl)oxy)-9,10-dihydroanthracen-2-yl) propiolamide]	~300 nM	induced decrease in MDM2 levels in a dose- and time-dependent fashion; also recorded: downregulate MDM2 and upregulate p53 in EU-1 cells in a time- and dose-dependent fashion; also recorded: downregulation of MDM2 and upregulation p53	high reactivity towards nucleophile such as thiol and amino acid	BW-AQ-350 >BW-AQ-353 >BW-AQ-295 ~ BW-AQ-354 >>BW-AQ-349	4670 ± 250 nM	520 ± 70 nM	4930 ± 450 nM	0.19 µM	2350 ± 690 nM		fold increase in potency compared to BW-AQ-295 (EU-1 cells; EU-1 cells, compared to BW-AQ-295): 2 fold
CC(=O)CCOc1cccc2c1C(=O)c1c(OCCC(C)=O)cc(NC(=O)CCl)cc1C2=O [BW-AQ-260, 2-chloro-N-(9,10-dioxo-4,5-bis(3-oxobutoxy)-9,10-dihydroanthracen-2-yl)acetamide]								0.45 µM		about 3 fold	
O=C(CCl)Nc1cc(O)c2c(c1)C(=O)c1cccc(O)c1C2=O [BW-AQ-101, 2-chloro-N-(4,5-dihydroxy-9,10-dioxo-9,10-dihydroanthracen-2-yl)acetamide]											IC50 (EU-1 ALL cells): ~800 nM
CC(=O)CCCOc1cccc2c1C(=O)c1c(OCCCC(C)=O)cc(NC(=O)CCl)cc1C2=O [BW-AQ-295, 2-chloro-N-(9,10-dioxo-4,5-bis ((4-oxopentyl)oxy)-9,10-dihydroanthracen-2-yl)acetamide]	1120 ± 200 nM	decrease MDM2 level and increase p53 level in a dose- and time-dependent manner; also recorded: downregulate MDM2 and upregulate p53 in EU-1 cells in a time- and dose-dependent fashion; also recorded: downregulation of MDM2 and upregulation p53	reacts with thiol species	BW-AQ-350 >BW-AQ-353 >BW-AQ-295 ~ BW-AQ-354 >>BW-AQ-349	2310 ± 80 nM	690 ± 100 nM	950 ± 170 nM	0.43 ± 0.06 µM	1160 ± 340 nM	about 3 fold	MDM2 and p53 level by Western blot, time course ([1]; 0.8 μM): decreased MDM2 and increased p53 level were observed from the 4-h time point; MDM2 level by Western blot ([1]; 2 μM, 6 h): decreased MDM2 to an almost undetectable level; fold less potency in HeLa cells compared to MCF7 cells (HeLa cells; HeLa vs MCF7): over 2 fold
CC(=O)CCCOc1cccc2c1C(=O)c1c(OCCCC(C)=O)cc(NC(C)=O)cc1C2=O [BW-AQ-349, N-(9,10-dioxo-4,5-bis ((4-oxopentyl)oxy)-9,10-dihydroanthracen-2-yl)acetamide]				BW-AQ-350 >BW-AQ-353 >BW-AQ-295 ~ BW-AQ-354 >>BW-AQ-349							stability in presence of NAC ([2]; 37° C. in PBS, HPLC): remained unchanged during the study duration (>400 min); IC50 (EU-1 cells; EU-1, 24 h): > 100 µM; cytotoxicity in EU-1 cells, in words (EU-1 cells; EU-1 cells): lack of activity
C#CC(N)=O [Propiolamide, reference compound]								33.5 ± 7.8 µM			
